Where “and” joins values, the source holds several entries; their conditions need not be identical. Equal entries are not always repeated. Entries after “also recorded” stand apart in the source; their conditions may differ. Where two headings read alike, the source gives them in different places.
What was measured:
[1] = system: IgG to Haemophilus influenza B, Pneumococcus and Tetanus; details: human, in vivo
[2] = system: serum/plasma IgG, IgA, IgM; details: cited from earlier work
[3] = system: Immunoglobulin levels (IgG, IgA and IgM); test: First observational study: serum immunoglobulin levels by nephelometry, clozapine vs clozapine-naive patients; format: in vivo, human
[4] = system: circulating total IgG, IgA, IgM and pneumococcus IgG; test: Second observational study (interim analysis): circulating immunoglobulins; format: in vivo, human; details: interim data
[5] = treatment-resistant schizophrenia; cited from earlier work
[6] = system: B cell subsets (class switched memory B cells, plasmablasts); details: for CSMB after stopping clozapine: one patient, 24 months after clozapine cessation (from 1.58%)
[7] = system: Immunoglobulin levels (IgG, IgA and IgM); test: Referred clozapine patients (Immunology clinic): serum immunoglobulins; format: in vivo, human
[8] = in vivo; cited from earlier work
[9] = system: B220+ B cells, plasma cells, germinal centre B cells; test: CIA model: B cell subsets in spleen and lymph nodes by FACS; format: in vivo, DBA/1 mice
Protocol: (§1) All experiments were approved by the Clinical Medicine Animal Welfare and Ethical Review Body (AWERB) and by the UK Home Office.
At the end of the experimental period, mice were humanely euthanised and bled by cardiac puncture to obtain blood samples for serum separation, storage at −80° C. and subsequent measurement of specific anti-collagen immunoglobulin (IgG1 and IgG2a isotypes) by ELISA. In parallel, spleen and inguinal lymph nodes were harvested for evaluation of cellular composition across these compartments using multi-laser flow cytometric detection and analysis. Numbers of B cell subsets in spleen and lymph nodes were determined by FACS.
(§2) Data were analyzed by one-way ANOVA with Tukey's or Dunnett's multiple comparison test or two-way ANOVA with Tukey's multiple comparison test as appropriate. All calculations were made using GraphPad Prism software. A P value less than 0.05 was considered significant.

[10] = system: collagen-induced arthritis (CIA); test: Mouse collagen-induced arthritis (CIA) model: onset, incidence, clinical score, paw swelling; format: in vivo, DBA/1 mice
Protocol: Adult (age 13-15 weeks) DBA/1 male mice were purchased from Envigo (Horst, Netherlands). Mice were housed at a 21° C.±2° C. in individually ventilated cages with free access to food and water and a 12-h light/dark cycle (7 am/7 pm). Mice were acclimatised for 1 week on arrival prior to initiating experiments.
as §1
DBA/1 mice were immunised with bovine type II collagen in CFA and monitored daily for onset of arthritis. […] Controls received vehicle (saline) alone. Treatment of mice commenced in one experiment on day 1 after immunisation and in a second experiment on day 15 after immunisation. Clinical scores and paw-swelling were monitored for 10 days following onset of arthritis. A clinical scoring system was used as follows. Arthritis severity was scored by an experienced, non-blinded investigator as follows: 0=normal, 1=slight swelling and/or erythema, 2=pronounced swelling, 3=ankylosis. All four limbs were scored, giving a maximum possible score of 12 per animal.
as §2

[11] = outpatients on clozapine at least five years (Lozano et al., 2016)
[12] = six weeks clozapine treatment (Hinze-Selch et al., 1998)
[13] = sub-group A: all diagnoses, all smoking, possible secondary causes not excluded, n=123
[14] = sub-group A: all diagnoses, all smoking, possible secondary causes not excluded, n=123, listed as clozapine
[15] = sub-group B: all diagnoses, all smoking, possible secondary causes excluded, n=94
[16] = sub-group C: schizophrenia diagnoses only, secondary causes excluded, n=87
[17] = sub-group D: smokers only, secondary causes excluded, n=57
[18] = 13 referred patients on clozapine
[19] = 13 referred patients, clozapine 200-750 mg, duration >4 to 21 years (two had stopped), one line per patient

Compound: CN1CCN(C2=Nc3cc(Cl)ccc3Nc3ccccc32)CC1 [Clozapine, clozapine]
- individuals failing to develop a pneumococcal IgG response above 50 mg/L [1]: 73%
- individuals failing to exceed 0.1 IU/mL post-vaccination Tetanus-IgG level [1]: 1/12
- individuals failing to mount a Haemophilus-IgG response of at least 1 mcg/ml [1]: 42%
- patients with IgG to Haemophilus influenza B (HiB) <1 mcg/ml [1]: 75%
- patients with Pneumococcus-IgG <50 mg/L [1]: 94%
- patients with Tetanus-IgG <0.1 IU/mL [1]: 38%
- patients with impaired responses to vaccination [1]: 10/11
- vaccine response, individual referred patients [1]: Failure to responds to; also recorded: Non-durable
- IgA, IgG, absolute neutrophil count and white blood cell count vs control group [2, 11]: no differences were found
- mean plasma levels of IgM vs control group [2, 11]: overall decrease
- IgA or IgM concentrations [2, 12]: no significant effect
- serum concentrations of IgG [2, 12]: significant increases
- % of patients with Serum IgM <0.3 g/L ([3]; human, in vivo): 12.3%
- concentrations/distribution of IgG, IgA and IgM vs clozapine-naive control group ([3]; human, in vivo): significantly reduced concentrations; also recorded: leftward shift
- association of longer duration of therapy with serum IgG ([3]; p 0.014, not observed with alternative antipsychotic drugs, FIG. 2): lower serum IgG levels
- % of patients with Serum IgA <0.5 g/L (Reference range 0.8-4.0 g/L) [3, 13]: 1.6%
- % of patients with Serum IgA <0.6 g/L [3, 13]: 2.4%
- % of patients with Serum IgA <0.7 g/L [3, 13]: 6.5%
- % of patients with Serum IgA <0.8 g/L (below reference range) [3, 13]: 13.0%
- % of patients with Serum IgG <3 g/L (Reference range 6-16 g/L) [3, 13]: 0.8%
- % of patients with Serum IgG <4 g/L [3, 13]: 1.6%
- % of patients with Serum IgG <5 g/L [3, 13]: 3.3%
- % of patients with Serum IgG <6 g/L (below reference range) [3, 13]: 9.8%
- % of patients with Serum IgM <0.2 g/L (Reference range 0.5-1.9 g/L) [3, 13]: 8.1%
- % of patients with Serum IgM <0.3 g/L [3, 13]: 16.3%
- % of patients with Serum IgM <0.4 g/L [3, 13]: 29.3%
- % of patients with Serum IgM <0.5 g/L (below reference range) [3, 13]: 38.2%
- % of patients with Serum IgA <0.8 g/L (below reference range) [3, 14]: 13.0% and 13.1%
- % of patients with Serum IgG <6 g/L (below reference range) [3, 14]: 9.8%
- % of patients with Serum IgM <0.5 g/L (below reference range) [3, 14]: 38.2%
- % of patients with Serum IgA <0.5 g/L (Reference range 0.8-4.0 g/L) [3, 15]: 2.1%
- % of patients with Serum IgA <0.6 g/L [3, 15]: 2.1%
- % of patients with Serum IgA <0.7 g/L [3, 15]: 6.4%
- % of patients with Serum IgA <0.8 g/L (below reference range) [3, 15]: 13.8%
- % of patients with Serum IgG <3 g/L (Reference range 6-16 g/L) [3, 15]: 1.1%
- % of patients with Serum IgG <4 g/L [3, 15]: 1.1%
- % of patients with Serum IgG <5 g/L [3, 15]: 2.1%
- % of patients with Serum IgG <6 g/L (below reference range) [3, 15]: 8.4%
- % of patients with Serum IgM <0.2 g/L (Reference range 0.5-1.9 g/L) [3, 15]: 5.3%
- % of patients with Serum IgM <0.3 g/L [3, 15]: 12.8%
- % of patients with Serum IgM <0.4 g/L [3, 15]: 26.6%
- % of patients with Serum IgM <0.5 g/L (below reference range) [3, 15]: 34.0%
- % of patients with Serum IgA <0.5 g/L (Reference range 0.8-4.0 g/L) [3, 16]: 2.3%
- % of patients with Serum IgA <0.6 g/L [3, 16]: 3.5%
- % of patients with Serum IgA <0.7 g/L [3, 16]: 6.9%
- % of patients with Serum IgA <0.8 g/L (below reference range) [3, 16]: 14.9%
- % of patients with Serum IgG <3 g/L (Reference range 6-16 g/L) [3, 16]: 1.2%
- % of patients with Serum IgG <4 g/L [3, 16]: 1.2%
- % of patients with Serum IgG <5 g/L [3, 16]: 2.3%
- % of patients with Serum IgG <6 g/L (below reference range) [3, 16]: 9.2%
- % of patients with Serum IgM <0.2 g/L (Reference range 0.5-1.9 g/L) [3, 16]: 5.8%
- % of patients with Serum IgM <0.3 g/L [3, 16]: 12.6%
- % of patients with Serum IgM <0.4 g/L [3, 16]: 27.6%
- % of patients with Serum IgM <0.5 g/L (below reference range) [3, 16]: 35.6%
- % of patients with Serum IgA <0.5 g/L (Reference range 0.8-4.0 g/L) [3, 17]: 3.5%
- % of patients with Serum IgA <0.6 g/L [3, 17]: 3.5%
- % of patients with Serum IgA <0.7 g/L [3, 17]: 3.5%
- % of patients with Serum IgA <0.8 g/L (below reference range) [3, 17]: 10.5%
- % of patients with Serum IgG <3 g/L (Reference range 6-16 g/L) [3, 17]: 1.8%
- % of patients with Serum IgG <4 g/L [3, 17]: 1.8%
- % of patients with Serum IgG <5 g/L [3, 17]: 1.8%
- % of patients with Serum IgG <6 g/L (below reference range) [3, 17]: 8.8%
- % of patients with Serum IgM <0.2 g/L (Reference range 0.5-1.9 g/L) [3, 17]: 1.78%
- % of patients with Serum IgM <0.4 g/L [3, 17]: 26.3%
- % of patients with Serum IgM <0.5 g/L (below reference range) [3, 17]: 33.3%
- levels of circulating total IgG, IgA and IgM vs clozapine naive control ([4]; FIG. 6A-C): Significantly reduced levels
- IgG antibodies against pneumococcus vs control ([4]; FIG. 7): trend to lower
- previously treatment refractive patients in whom effective [5]: approximately 60%
- marginal zone B cell numbers vs healthy control ([6]; FIG. 3B): no significant difference
- total B cell numbers vs CVID and healthy controls ([6]; FIG. 3B): similar
- CSMB (6.5-29.1%), individual referred patients ([6]; class switched memory B cells as % of CD19+ cells, one line per patient, listed as clozapine): 1.58%
- overall lymphopenia / B cell lymphopenia ([6]; human, in vivo): no severe overall lymphopenia or B cell lymphopenia
- CSMB after stopping clozapine [6]: CSMB rose to 2.77%
- CSMB after stopping clozapine ([6]; listed as clozapine): 2.77%
- mean percentage of CSMB, referred patients ([6]; reference range 6.5-29.1%, p<0.0001 vs healthy controls, FIG. 3A): 1.87%
- mean IgA, referred patients [7, 18]: 0.34 g/L
- mean IgG, referred patients [7, 18]: 3.6 g/L
- mean IgM, referred patients [7, 18]: 0.21 g/L
- serum IgA, individual referred patients [7, 19]: IgA 0.54 g/L and <0.22 g/L (6×) and IgA 0.49 g/L and IgA 0.38 g/L and undetect- and IgA 0.26 g/L and IgA 0.81 g/L and IgA 0.63 g/L
- serum IgG, individual referred patients [7, 19]: IgG 4.8 g/L and <1.34 g/L (2×) and IgG 5.24 g/L and IgG 2.68 g/L and IgG 2.98 g/L and IgG 1.2 g/L and IgG 3.3 g/L and IgG 2.38 g/L and IgG 4.24 g/L and IgG 6.65 g/L and IgG 5.61 g/L and IgG 4.79 g/L
- serum IgM, individual referred patients [7, 19]: IgM 0.3 g/L and <0.17 g/L (7×) and 0.41 g/L (2×) and 0.23 g/L and 0.07 g/L and 0.18 g/L
- serum IgG, individual referred patients ([7]; 13 referred patients, clozapine 200-750 mg, duration >4 to 21 years (two had stopped), one line per patient, listed as clozapine): 3.3 g/L
- serum IgG post-discontinuation of clozapine ([7]; FIG. 5, gradual recovery over 3 years): 5.95 g/L
- serum IgG at discontinuation of clozapine ([7]; FIG. 5, start of recovery): 3.5 g/L
- IgA and IgM following cessation of clozapine ([7]; FIG. 5 / one patient over 24 months): without clear improvement; also recorded: remained low
- serum IgM after stopping clozapine ([7]; one patient, 24 months after clozapine cessation): 0.49 after 24 months
- serum IgG after stopping clozapine, intermediate value ([7]; one patient, within 24 months after cessation): 4.8 g/L
- LD50 [8]: 200 mg/kg
- proportion of B220+ B cells in spleen ([9]; 10 mg/kg from day 1, FIG. 29): significantly reduced
- proportion of plasma cells in spleen ([9]; 10 mg/kg given on day 1, FIG. 30): significant reduction
- plasma cell numbers in lymph node ([9]; FIG. 30): no significant effect
- level of GL7 expression on follicular B cells in lymph node ([9]; all clozapine treatment groups vs vehicle, FIG. 32): significantly decreased
- percentage of B220+ B cells in lymph nodes ([9]; all doses and time points (5 or 10 mg/kg from day 1 or day 15), FIG. 29): significantly lower percentage
- lymph node follicular B cells (B220+IgD-Fas+GL7hi) ([9]; all doses/both time points, FIG. 31): Strikingly significant reductions
- swelling of the first affected paw ([10]; 10 mg/kg from day 1, FIG. 27): reduced swelling of the first affected paw
- onset of arthritis post-immunisation ([10]; 5 or 10 mg/kg IP daily from day 1 or day 15, FIG. 25, 26): significantly effective
- incidence of CIA ([10]; FIG. 26): reduces the incidence
- onset of arthritis, treatment from day 1 ([10]; both doses (5, 10 mg/kg) from day 1, FIG. 25, 26): extremely effective
- overall clinical score ([10]; both doses, administered from day 1, FIG. 27): reduced overall clinical score
- total number of affected paws compared to vehicle control ([10]; significant with dosing at D1, FIG. 28): reduced the total number of affected paws

Reference: US20210137941A1 (ZARODEX THERAPEUTICS LIMITED, priority 2018, published 2021)
